Data: patent US8574563B2 (Bristol-Myers Squibb Company, priority 2006, dated 2013)

These compounds were tested on HCV 1b-377-neo replicon cells (assay: HCV replicon assay, HCV 1b-377-neo replicon cells (1b FRET)). Conditions: HCV 1b-377-neo replicon cells; HCV 1b genotype; read-out: EC50 range against HCV 1b (Table 2, Range).
Format: cell-based, Hepatitis C virus genotype 1b
In short: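 Compounds were tested in genotype 1b subgenomic replicon cells carrying a neomycin marker, alongside a matched replicon line with an NS5A Y2065H substitution that confers resistance to a reference NS5A inhibitor.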

SMILES | EC50 [pM]
C[C@@](O)(C(=O)N1CCC[C@H]1c1ncc(-c2ccc(-c3ccc(-c4cnc([C@@H]5CCCN5C(=O)[C@@](C)(O)c5ccccc5)[nH]4)cc3)cc2)[nH]1)c1ccccc1 [Example 3, (2S,2′S)-1,1′-(4,4′-biphenyldiylbis(1H-imidazole-5,2-diyl(2)-2,1-pyrrolidinediyl))bis(1-oxo-2-phenyl-2-propanol)] | 1 to 999
CCC[C@H](NC(=O)OC)C(=O)N1CCC[C@H]1c1ncc(-c2ccc(-c3ccc(-c4cnc([C@@H]5CCCN5C(=O)[C@H](C)NC(=O)OC)[nH]4)cc3)cc2)[nH]1 [Example M94, methyl ((1S)-1-(((2S)-2-(5-(4′-(2-((2S)-1-((2S)-2-((methoxycarbonyl)amino)propanoyl)-2-pyrrolidinyl)-1H-imidazol-5-yl)-4-biphenylyl)-1H-imidazol-2-yl)-1-pyrrolidinyl)carbonyl)butyl) carbamate] | 1000 to 99000

Same assay, conditions: Hepatitis C virus, HCV 1b-377-neo replicon cells; HCV 1b genotype; read-out: EC50 range against HCV 1b (Table 2, Range)

SMILES | EC50 [pM]
CN(C)[C@@H](C(=O)N1CCC[C@H]1c1ncc(-c2ccc(-c3ccc(-c4cnc([C@@H]5CCCN5C(=O)[C@H]5CCN(Cc6ccccc6)C5)[nH]4)cc3)cc2)[nH]1)c1ccccc1 [Example 94-26, (1R)-2-((2S)-2-(5-(4′-(2-((2S)-1-(((3S)-1-benzyl-3-pyrrolidinyl)carbonyl)-2-pyrrolidinyl)-1H-imidazol-5-yl)-4-biphenylyl)-1H-imidazol-2-yl)-1-pyrrolidinyl)-N,N-dimethyl-2-oxo-1-phenylethanamine] | 1 to 999
CC(C)[C@@H](O)C(=O)N1CCC[C@H]1c1ncc(-c2ccc(-c3ccc(-c4cnc([C@@H]5CCCN5C(=O)[C@H](O)C(C)C)[nH]4)cc3)cc2)[nH]1 [Example 16, (2R,2′R)-1,1′-(4,4′-biphenyldiylbis(1H-imidazole-5,2-diyl(2S)-2,1-pyrrolidinediyl))bis(3-methyl-1-oxo-2-butanol)] | 1000 to 99000
CCNC(=O)N[C@@H](C(=O)N1CCC[C@H]1c1ncc(-c2ccc(-c3ccc(-c4cnc([C@@H]5CCCN5C(=O)[C@H](NC(=O)NCC)c5ccccc5)[nH]4)cc3)cc2)[nH]1)c1ccccc1 [Example 24-4c, N′,N′′′-(4,4′-biphenyldiylbis(1H-imidazole-5,2-diyl(2S)-2,1-pyrrolidinediyl((1R)-2-oxo-1-phenyl-2,1-ethanediyl)))bis(1-ethylurea)] | 1 to 999
COC[C@H](NC(=O)OC)C(=O)N1CCC[C@H]1c1ncc(-c2ccc(-c3ccc(-c4cnc([C@@H]5CCCN5C(=O)[C@@H](NC(=O)OC)C(C)C)[nH]4)cc3)cc2)[nH]1 [Example M71, methyl ((1S)-2-((2S)-2-(5-(4′-(2-((2S)-1-(N-(methoxycarbonyl)-L-valyl)-2-pyrrolidinyl)-1H-imidazol-5-yl)-4-biphenylyl)-1H-imidazol-2-yl)-1-pyrrolidinyl)-1-(methoxymethyl)-2-oxoethyl)carbamate] | 1000 to 99000
COC(=O)N[C@@H](Cc1c[nH]nn1)C(=O)N1CCC[C@H]1c1ncc(-c2ccc(-c3ccc(-c4cnc([C@@H]5CCCN5C(=O)[C@@H](NC(=O)OC)C(C)C)[nH]4)cc3)cc2)[nH]1 [cj-34, methyl ((1S)-1-(((2S)-2-(5-(4′-(2-((2S)-1-((2S)-2-((methoxycarbonyl)amino)-3-(1H-1,2,3-triazol-4-yl)propanoyl)-2-pyrrolidinyl)-1H-imidazol-5-yl)-4-biphenylyl)-1H-imidazol-2-yl)-1-pyrrolidinyl)carbonyl)-2-methylpropyl)carbamate] | 1 to 999
COC(=O)N[C@@H](Cc1ccccn1)C(=O)N1CCC[C@H]1c1ncc(-c2ccc(-c3ccc(-c4cnc([C@@H]5CCCN5C(=O)[C@H](Cc5ccccn5)NC(=O)OC)[nH]4)cc3)cc2)[nH]1 [cj-130, methyl ((1S)-2-((2S)-2-(5-(4′-(2-((2S)-1-((2S)-2-((methoxycarbonyl)amino)-3-(2-pyridinyl)propanoyl)-2-pyrrolidinyl)-1H-imidazol-5-yl)-4-biphenylyl)-1H-imidazol-2-yl)-1-pyrrolidinyl)-2-oxo-1-(2-pyridinylmethyl)ethyl)carbamate] | 1 to 999
CNCC(=O)N1CCC[C@H]1c1ncc(-c2ccc(-c3ccc(-c4cnc([C@@H]5CCCN5C(=O)[C@@H](NC(=O)OC)C(C)C)[nH]4)cc3)cc2)[nH]1 [LS20, methyl ((1S)-2-methyl-1-(((2S)-2-(5-(4′-(2-((2S)-1-(N-methylglycyl)-2-pyrrolidinyl)-1H-imidazol-5-yl)-4-biphenylyl)-1H-imidazol-2-yl)-1-pyrrolidinyl)carbonyl)propyl)carbamate] | 1 to 999
COC(=O)N[C@@H](C)C(=O)N1CCC[C@H]1c1ncc(-c2ccc(-c3ccc(-c4cnc([C@@H]5CCCN5C(=O)[C@H](NC(=O)OC)c5ccccc5)[nH]4)c(F)c3)cc2F)[nH]1 [Example D62, methyl ((1R)-2-((2S)-2-(5-(3,3′-difluoro-4′-(2-((2S)-1-(N-(methoxycarbonyl)-L-alanyl)-2-pyrrolidinyl)-1H-imidazol-5-yl)-4-biphenylyl)-1H-imidazol-2-yl)-1-pyrrolidinyl)-2-oxo-1-phenylethyl)carbamate] | 1 to 999
COC(=O)N[C@H](C(=O)N1[C@@H]2C[C@@H]2C[C@H]1c1ncc(-c2ccc(-c3ccc(-c4cnc([C@@H]5C[C@H]6C[C@H]6N5C(C)=O)[nH]4)cc3)cc2)[nH]1)C(C)C [Example M138, methyl ((1S)-1-(((1R,3S,5R)-3-(4-(4′-(2-((1R,3S,5R)-2-acetyl-2-azabicyclo[3.1.0]hex-3-yl)-1H-imidazol-4-yl)-4-biphenylyl)-1H-imidazol-2-yl)-2-azabicyclo[3.1.0]hex-2-yl)carbonyl)-2-methylpropyl)carbamate] | 1 to 999
COC(=O)N[C@@H](C)C(=O)N1CCC[C@H]1c1nc(-c2ccc(-c3ccc(-c4[nH]c([C@@H]5CCCN5C(=O)[C@H](C)NC(=O)OC)nc4C)cc3)cc2)c(C)[nH]1 [Example E5k, methyl ((1S)-2-((2S)-2-(4-(4′-(2-((2S)-1-(N-(methoxycarbonyl)-L-alanyl)-2-pyrrolidinyl)-5-methyl-1H-imidazol-4-yl)-4-biphenylyl)-5-methyl-1H-imidazol-2-yl)-1-pyrrolidinyl)-1-methyl-2-oxoethyl)carbamate] | 1 to 999
COC(=O)N[C@@H](C(=O)N1CCC[C@H]1c1ncc(-c2ccc(-c3ccc(-c4cnc([C@@H]5CCCN5C(=O)C(c5ccc6sc(C)nc6c5)N(C)C)[nH]4)cc3)cc2)[nH]1)c1ccccc1 (stereo partly drawn) [Example 84-53, methyl ((1R)-2-((2S)-2-(5-(4′-(2-((2S)-1-((dimethylamino)(2-methyl-1,3-benzothiazol-5-yl)acetyl)-2-pyrrolidinyl)-1H-imidazol-5-yl)-4-biphenylyl)-1H-imidazol-2-yl)-1-pyrrolidinyl)-2-oxo-1-phenylethyl)carbamate] | 1 to 999
CN(C)[C@H](C(=O)N1CCC[C@H]1c1ncc(-c2ccc(-c3ccc(-c4cnc([C@@H]5CCCN5C(=O)[C@H](c5ccccc5)N(C)C)[nH]4)cc3)cc2)[nH]1)c1ccccc1 [Example 5, (1S,1′S)-2,2′-(4,4′-biphenyldiylbis(1H-imidazole-5,2-diyl(2S)-2,1-pyrrolidinediyl))bis(N,N-dimethyl-2-oxo-1-phenylethanamine)] | 1000 to 99000
COC(=O)N(C)[C@H](C(=O)N1CCC[C@H]1c1ncc(-c2ccc(-c3ccc(-c4cnc([C@@H]5CCCN5C(=O)[C@H](C(C)C)N(C)C(=O)OC)[nH]4)cc3)cc2)[nH]1)C(C)C [Example M11, methyl ((1S)-1-(((2S)-2-(5-(4′-(2-((2S)-1-((2S)-2-((methoxycarbonyl)(methyl)amino)-3-methylbutanoyl)-2-pyrrolidinyl)-1H-imidazol-5-yl)-4-biphenylyl)-1H-imidazol-2-yl)-1-pyrrolidinyl)carbonyl)-2-methylpropyl)methyl-carbamate] | 1000 to 99000
CCN(CC)[C@@H](C(=O)N1CCC[C@H]1c1ncc(-c2ccc(-c3ccc(-c4cnc([C@@H]5CCCN5C(=O)[C@H](Cc5ccc(OCc6ccccc6)cc5)NC(=O)OC)[nH]4)cc3)cc2)[nH]1)c1ccccc1 [cj-106, methyl ((1S)-1-(4-(benzyloxy)benzyl)-2-((2S)-2-(5-(4′-(2-((2S)-1-((2R)-2-(diethylamino)-2-phenylacetyl)-2-pyrrolidinyl)-1H-imidazol-5-yl)-4-biphenylyl)-1H-imidazol-2-yl)-1-pyrrolidinyl)-2-oxoethyl)carbamate] | 1 to 999
COc1ccccc1OCC(=O)N1CCC[C@H]1c1ncc(-c2ccc(-c3ccc(-c4cnc([C@@H]5CCCN5C(=O)[C@@H](c5ccccc5)N5CCCCC5)[nH]4)cc3)cc2)[nH]1 [Example 107-8, 1-((1R)-2-((2S)-2-(5-(4′-(2-((2S)-1-((2-methoxyphenoxy)acetyl)-2-pyrrolidinyl)-1H-imidazol-5-yl)-4-biphenylyl)-1H-imidazol-2-yl)-1-pyrrolidinyl)-2-oxo-1-phenylethyl) piperidine] | 1 to 999
Cc1cc(CC(=O)N2CCC[C@H]2c2ncc(-c3ccc(-c4ccc(-c5cnc([C@@H]6CCCN6C(=O)[C@@H](c6ccccc6)N6CCCCC6)[nH]5)cc4)cc3)[nH]2)on1 [Example 107-24, 1-((1R)-2-((2S)-2-(5-(4′-(2-((2S)-1-((3-methyl-5-isoxazolyl)acetyl)-2-pyrrolidinyl)-1H-imidazol-5-yl)-4-biphenylyl)-1H-imidazol-2-yl)-1-pyrrolidinyl)-2-oxo-1-phenylethyl) piperidine] | 1 to 999
CCN(CC)[C@@H](C(=O)N1CCC[C@H]1c1ncc(-c2ccc(-c3ccc(-c4cnc([C@@H]5CCCN5C(=O)C[C@H](C)NC(=O)OC)[nH]4)cc3)cc2)[nH]1)c1ccccc1 [cj-51, methyl ((1S)-3-((2S)-2-(5-(4′-(2-((2S)-1-((2R)-2-(diethylamino)-2-phenylacetyl)-2-pyrrolidinyl)-1H-imidazol-5-yl)-4-biphenylyl)-1H-imidazol-2-yl)-1-pyrrolidinyl)-1-methyl-3-oxopropyl)carbamate] | 1 to 999
